Measurements as given in patent publication US9796711B2, “Substituted pyrazolo[3,4-b]pyridin-6-carboxylic acids and method of use” (AbbVie S.àr.l., priority 2015, dated 2017).

Experiments:
[1] = molecular target: T1, ΔF508-CFTR (Homo sapiens, UniProt P13569, DEL508-508); assay: CFTR cell surface levels using HRP-tagged ΔF508-CFTR expressing CFBE cells, in the presence of a co-corrector; type: cell-based
T1 construct: host or cells: CFBE41o-, doxycycline-inducible
Procedure, shortened: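 Cells were seeded with 0.5 μg/mL doxycycline and held 68 h at 37 °C. Test compounds plus 3 μM co-corrector (final 0.1% DMSO) were then added for 20 h at 33 °C. Washed cells received HRP substrate, and luminescence was normalized between DMSO and 3 μM co-corrector controls.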

[2] = molecular target: T1, ΔF508-CFTR; assay: CFTR cell surface levels using HRP-tagged ΔF508-CFTR expressing CFBE cells, intrinsic corrector capacity; type: cell-based
Procedure, shortened: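 Here the cells express ΔF508-CFTR with horseradish peroxidase inserted in extracellular loop 4, so only rescued channel at the surface gives luminescent signal. Compounds act on their own, 20 h at the reduced temperature of 33 °C; values are percent activity relative to DMSO and a 3 μM corrector.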

[3] = HRP-tagged ΔF508-CFTR expressing CFBE cells, in the presence of 3 μM co-corrector
[4] = HRP-tagged ΔF508-CFTR expressing CFBE cells, in the presence of 3 μM co-corrector, read-out: EC50
[5] = HRP-tagged ΔF508-CFTR expressing CFBE cells, intrinsic corrector capacity (no co-corrector), 33° C., 20 hours
[6] = HRP-tagged ΔF508-CFTR expressing CFBE cells, intrinsic corrector capacity (no co-corrector), 33° C., 20 hours, read-out: EC50

T1 sequence (P13569 with tags, fused parts or gaps DEL508-508): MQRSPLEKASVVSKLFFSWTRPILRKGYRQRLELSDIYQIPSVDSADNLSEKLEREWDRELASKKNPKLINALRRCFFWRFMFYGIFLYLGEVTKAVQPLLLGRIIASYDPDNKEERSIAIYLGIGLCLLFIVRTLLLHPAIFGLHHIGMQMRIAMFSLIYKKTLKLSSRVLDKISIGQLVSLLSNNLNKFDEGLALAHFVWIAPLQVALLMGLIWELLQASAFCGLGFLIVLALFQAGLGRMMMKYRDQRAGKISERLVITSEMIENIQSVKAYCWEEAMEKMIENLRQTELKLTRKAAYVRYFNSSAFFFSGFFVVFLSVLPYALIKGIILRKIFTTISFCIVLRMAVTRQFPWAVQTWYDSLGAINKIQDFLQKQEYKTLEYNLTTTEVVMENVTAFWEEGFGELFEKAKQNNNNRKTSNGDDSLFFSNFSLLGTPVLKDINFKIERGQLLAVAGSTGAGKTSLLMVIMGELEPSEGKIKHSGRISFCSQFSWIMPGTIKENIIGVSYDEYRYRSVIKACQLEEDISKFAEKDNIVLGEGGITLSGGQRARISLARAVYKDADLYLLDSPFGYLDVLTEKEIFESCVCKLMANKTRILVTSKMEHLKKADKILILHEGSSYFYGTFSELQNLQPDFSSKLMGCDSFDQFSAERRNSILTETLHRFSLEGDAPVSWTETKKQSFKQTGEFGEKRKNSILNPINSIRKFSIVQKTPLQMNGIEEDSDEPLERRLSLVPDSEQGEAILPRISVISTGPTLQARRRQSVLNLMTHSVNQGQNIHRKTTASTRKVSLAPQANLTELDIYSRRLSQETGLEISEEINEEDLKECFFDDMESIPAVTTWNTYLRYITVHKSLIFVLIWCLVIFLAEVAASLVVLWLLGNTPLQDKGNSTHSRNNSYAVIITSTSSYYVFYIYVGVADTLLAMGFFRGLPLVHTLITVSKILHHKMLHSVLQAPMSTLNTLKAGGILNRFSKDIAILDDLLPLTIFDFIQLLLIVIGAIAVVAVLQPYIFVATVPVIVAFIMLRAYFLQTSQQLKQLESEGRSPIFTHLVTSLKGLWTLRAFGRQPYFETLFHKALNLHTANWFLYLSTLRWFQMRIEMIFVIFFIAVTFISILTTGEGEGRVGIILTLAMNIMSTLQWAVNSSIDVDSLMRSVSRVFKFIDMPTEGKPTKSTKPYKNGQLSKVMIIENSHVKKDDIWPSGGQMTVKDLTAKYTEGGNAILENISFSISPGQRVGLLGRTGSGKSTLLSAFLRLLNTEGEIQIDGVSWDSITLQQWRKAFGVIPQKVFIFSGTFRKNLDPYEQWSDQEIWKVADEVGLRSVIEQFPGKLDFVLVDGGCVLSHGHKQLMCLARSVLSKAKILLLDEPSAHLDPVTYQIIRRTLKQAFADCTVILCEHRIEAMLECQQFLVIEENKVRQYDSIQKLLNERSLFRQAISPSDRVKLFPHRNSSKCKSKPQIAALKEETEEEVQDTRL

| SMILES | % Activation [1, 3] [%] | EC50 [1, 4] [nM] | % Activation [2, 5] [%] | EC50 [2, 6] [nM] | EC50 [1] [nM] | EC50 [2] [nM] |
| --- | --- | --- | --- | --- | --- | --- |
| CS(=O)(=O)C1(COc2cc(C(=O)O)nc3c2c(C2CCC2)nn3-c2ccccc2)CCC1 [compound 632, 3-cyclobutyl-4-{[1-(methanesulfonyl)cyclobutyl]methoxy}-1-phenyl-1H-pyrazolo[3,4-b]pyridine-6-carboxylic acid] | 129.55 | > 10000 | 18.94 | > 10000 |  |  |
| O=C(O)c1cc(OCCC2CCCCC2)c2c(C3CCC3)nn(-c3ccccc3)c2n1 [compound 633, 3-cyclobutyl-4-(2-cyclohexylethoxy)-1-phenyl-1H-pyrazolo[3,4-b]pyridine-6-carboxylic acid] | 279.27 | 714 | 66.87 | 666 |  |  |
| CN1CCN(CCCOc2cc(C(=O)O)nc3c2c(C2CCC2)nn3-c2ccccc2)CC1 [compound 634, 3-cyclobutyl-4-[3-(4-methylpiperazin-1-yl)propoxy]-1-phenyl-1H-pyrazolo[3,4-b]pyridine-6-carboxylic acid] | 294.7 | 2570 | 122.2 | 3330 |  |  |
| CN(C)CCCOc1cc(C(=O)O)nc2c1c(C1CCC1)nn2-c1ccccc1 [compound 635, 3-cyclobutyl-4-[3-(dimethylamino)propoxy]-1-phenyl-1H-pyrazolo[3,4-b]pyridine-6-carboxylic acid] | 233.85 | 2110 | 86.1 | 3330 |  |  |
| CN(C)CC(C)(C)COc1cc(C(=O)O)nc2c1c(C1CCC1)nn2-c1ccccc1 [compound 636, 3-cyclobutyl-4-[3-(dimethylamino)-2,2-dimethylpropoxy]-1-phenyl-1H-pyrazolo[3,4-b]pyridine-6-carboxylic acid] | 391.3 | 790 | 184.1 | 617 |  |  |
| CN(C)CCOc1cc(C(=O)O)nc2c1c(C1CCC1)nn2-c1ccccc1 [compound 637, 3-cyclobutyl-4-[2-(dimethylamino)ethoxy]-1-phenyl-1H-pyrazolo[3,4-b]pyridine-6-carboxylic acid] | 174.45 | 3010 | 49.14 | 3330 |  |  |
| CN(C)CC(CN(C)C)Oc1cc(C(=O)O)nc2c1c(C1CCC1)nn2-c1ccccc1 [compound 638, 4-{[1,3-bis(dimethylamino)propan-2-yl]oxy}-3-cyclobutyl-1-phenyl-1H-pyrazolo[3,4-b]pyridine-6-carboxylic acid] | 175.15 | 6660 | 24.93 | > 10000 |  |  |
| O=C(O)c1cc(OCCN2CCCCC2)c2c(C3CCC3)nn(-c3ccccc3)c2n1 [compound 639, 3-cyclobutyl-1-phenyl-4-[2-(piperidin-1-yl)ethoxy]-1H-pyrazolo[3,4-b]pyridine-6-carboxylic acid] | 261.7 | 1670 | 96.54 | 2210 |  |  |
| O=C(O)c1cc(OCCN2CCNC2=O)c2c(C3CCC3)nn(-c3ccccc3)c2n1 [compound 640, 3-cyclobutyl-4-[2-(2-oxoimidazolidin-1-yl)ethoxy]-1-phenyl-1H-pyrazolo[3,4-b]pyridine-6-carboxylic acid] | 137.45 | > 10000 | 13.97 | > 10000 |  |  |
| O=C(O)c1cc(OC(CN2CCOCC2)CN2CCOCC2)c2c(C3CCC3)nn(-c3ccccc3)c2n1 [compound 641, 4-{[1,3-bis(morpholin-4-yl)propan-2-yl]oxy}-3-cyclobutyl-1-phenyl-1H-pyrazolo[3,4-b]pyridine-6-carboxylic acid] | 239.75 | 2270 | 65.07 | 3330 |  |  |
| O=C(O)c1cc(OCCCN2CCCCC2)c2c(C3CCC3)nn(-c3ccccc3)c2n1 [compound 642, 3-cyclobutyl-1-phenyl-4-[3-(piperidin-1-yl)propoxy]-1H-pyrazolo[3,4-b]pyridine-6-carboxylic acid] | 281.95 | 2400 | 125.9 | 3330 |  |  |
| O=C(O)c1cc(OCCN2CCCCCC2)c2c(C3CCC3)nn(-c3ccccc3)c2n1 [compound 643, 4-[2-(azepan-1-yl)ethoxy]-3-cyclobutyl-1-phenyl-1H-pyrazolo[3,4-b]pyridine-6-carboxylic acid] | 271.8 | 1260 | 95.84 | 2900 |  |  |
| CN1CCCN(CCOc2cc(C(=O)O)nc3c2c(C2CCC2)nn3-c2ccccc2)CC1 [compound 644, 3-cyclobutyl-4-[2-(4-methyl-1,4-diazepan-1-yl)ethoxy]-1-phenyl-1H-pyrazolo[3,4-b]pyridine-6-carboxylic acid] | 196.3 | 3330 | 42.75 | 3330 |  |  |
| CN1CCC[C@]12C[C@@H](Oc1cc(C(=O)O)nc3c1c(C1CCC1)nn3-c1ccccc1)C2 [compound 645, 3-cyclobutyl-4-{[(2s,4r)-5-methyl-5-azaspiro[3.4]octan-2-yl]oxy}-1-phenyl-1H-pyrazolo[3,4-b]pyridine-6-carboxylic acid] | 270.05 | 409 | 111.55 | 1070 |  |  |
| CCN(CC)CC1(N2CC(Oc3cc(C(=O)O)nc4c3c(C3CCC3)nn4-c3ccccc3)C2)COC1 [compound 646, 3-cyclobutyl-4-[(1-{3-[(diethylamino)methyl]oxetan-3-yl}azetidin-3-yl)oxy]-1-phenyl-1H-pyrazolo[3,4-b]pyridine-6-carboxylic acid] | 198 | 3330 | 45.39 | 3330 |  |  |
| CC(C)N1CCC(Oc2cc(C(=O)O)nc3c2c(C2CCC2)nn3-c2ccccc2)CC1 [compound 647, 3-cyclobutyl-1-phenyl-4-{[1-(propan-2-yl)piperidin-4-yl]oxy}-1H-pyrazolo[3,4-b]pyridine-6-carboxylic acid] | 301.3 | 2010 | 119.9 | 2180 |  |  |
| O=C(O)c1cc(OC2CCCCCC2)c2c(C3CCC3)nn(-c3ccccc3)c2n1 [compound 648, 3-cyclobutyl-4-(cycloheptyloxy)-1-phenyl-1H-pyrazolo[3,4-b]pyridine-6-carboxylic acid] | 296.1 | 203 | 90.745 | 263 |  |  |
| O=C(O)c1cc(OC2CCCCCCC2)c2c(C3CCC3)nn(-c3ccccc3)c2n1 [compound 649, 3-cyclobutyl-4-(cyclooctyloxy)-1-phenyl-1H-pyrazolo[3,4-b]pyridine-6-carboxylic acid] | 314.65 | 225 | 107.6 | 432 |  |  |
| CN1CC[C@@H](Oc2cc(C(=O)O)nc3c2c(C2CCC2)nn3-c2ccccc2)C1 [compound 650, 3-cyclobutyl-4-{[(3R)-1-methylpyrrolidin-3-yl]oxy}-1-phenyl-1H-pyrazolo[3,4-b]pyridine-6-carboxylic acid] | 193.6 | 3330 | 45.88 | 3330 |  |  |
| CN1CC[C@H](Oc2cc(C(=O)O)nc3c2c(C2CCC2)nn3-c2ccccc2)C1 [compound 651, 3-cyclobutyl-4-{[(3S)-1-methylpyrrolidin-3-yl]oxy}-1-phenyl-1H-pyrazolo[3,4-b]pyridine-6-carboxylic acid] | 187.9 | 2200 | 54.22 | 3330 |  |  |
| CC(C)c1nn(-c2ccc(F)cc2)c2nc(C(=O)O)cc(OCC3(C)CC(F)(F)C3)c12 [compound 652, 4-[(3,3-difluoro-1-methylcyclobutyl)methoxy]-1-(4-fluorophenyl)-3-(propan-2-yl)-1H-pyrazolo[3,4-b]pyridine-6-carboxylic acid] | 310.6 | 203 | 130.6 | 334 |  |  |
| COCC(COC)Oc1cc(C(=O)O)nc2c1c(C(C)C)nn2-c1ccc(F)cc1 [compound 654, 4-[(1,3-dimethoxypropan-2-yl)oxy]-1-(4-fluorophenyl)-3-(propan-2-yl)-1H-pyrazolo[3,4-b]pyridine-6-carboxylic acid] | 245.5 | 3330 | 66.19 | 3330 |  |  |
| O=C(O)c1cc(NC[C@@H]2CCCO2)c2c(C3CCC3)nn(-c3ccccc3)c2n1 [compound 655, 3-cyclobutyl-4-({[(2S)-oxolan-2-yl]methyl}amino)-1-phenyl-1H-pyrazolo[3,4-b]pyridine-6-carboxylic acid] | 340.2 |  | 165.6 |  | 1130 | 3100 |
| CC(C)c1nn(-c2ccc(F)cc2)c2nc(C(=O)O)cc(N3CCC(C4CCN(C)CC4)CC3)c12 [compound 661, 1-(4-fluorophenyl)-4-(1′-methyl [4,4′-bipiperidin]-1-yl)-3-(propan-2-yl)-1H-pyrazolo[3,4-b]pyridine-6-carboxylic acid] | 522.3 | 227 | 315 | 565 |  |  |
